{"source": "patent US20250066286A1", "about": "“COMPOSITIONS OF (Z)-ENDOXIFEN AND METHODS OF ENRICHMENT THEREOF” (Atossa Therapeutics, Inc., priority 2022, published 2025)", "assay": "Precipitation of (Z)-endoxifen by cooling, gradient precipitation (XRPD)", "assay_type": "physicochemical", "details": "GRAD", "procedure": "Z)-endoxifen was precipitated by cooling various single and multi- solvent systems. […] The crystallizations utilized cooling rates of 0.5° C./minute or 0.2° C./minute. The samples were then incubated 25° C. with stirring for approximately 15 hours. Some solutions generated precipitate, which was recovered by filtration with a nylon filter (0.22 μm) during centrifugation at 4000 rpm for 3 minutes.\nThe resulting precipitate was recovered by filtration with a nylon filter (0.22 μm) during centrifugation at 4000 rpm for 3 minutes.\nAll precipitates were collected for XRPD analysis.", "key": {"[1]": {"details": "2-propanol 0.5 mL, 20 mg/mL, 75 to 25 °C, ramp −0.2"}, "[2]": {"details": "acetone 0.5 mL, 20 mg/mL, 25 to −20 °C, ramp not controlled, 3 d"}, "[3]": {"details": "acetonitrile 0.5 mL, 20 mg/mL, 75 to 25 °C, ramp −0.2"}, "[4]": {"details": "butyl acetate 0.5 mL, 100 mg/mL, 100 to 25 °C, ramp −0.2"}, "[5]": {"details": "ethanol 0.5 mL, 20 mg/mL, 75 to 25 °C, ramp −0.2"}}}
{"compound": "CC/C(=C(\\c1ccc(O)cc1)c1ccc(OCCNC)cc1)c1ccccc1", "note": "[(Z)-endoxifen, (Z)-4-(1-(4-(2-(methylamino)ethoxy)phenyl)-2-phenylbut-1-enyl)phenol]", "values": [{"measurement": "Output Crystallinity [high/low/SC/oriented]", "setting": "[1]", "value": "low"}, {"measurement": "Output Main phase [phase]", "setting": "[1]", "value": "Form I"}, {"measurement": "Output Main phase [phase]", "setting": "2-propanol 0.5 mL, 100 mg/mL, 75 to 25 °C, ramp −0.2", "value": "Form I"}, {"measurement": "Output Crystallinity [high/low/SC/oriented]", "setting": "[2]", "value": "low"}, {"measurement": "Output Main phase [phase]", "setting": "[2]", "value": "Form I"}, {"measurement": "Output Crystallinity [high/low/SC/oriented]", "setting": "[3]", "value": "low"}, {"measurement": "Output Main phase [phase]", "setting": "[3]", "value": "Form V"}, {"measurement": "Output Crystallinity [high/low/SC/oriented]", "setting": "[4]", "value": "low"}, {"measurement": "Output Main phase [phase]", "setting": "[4]", "value": "Form I"}, {"measurement": "Output Crystallinity [high/low/SC/oriented]", "setting": "[5]", "value": "low"}, {"measurement": "Output Main phase [phase]", "setting": "[5]", "value": "Form I"}, {"measurement": "Output Main phase [phase]", "setting": "ethanol 0.5 mL, 100 mg/mL, 75 to 25 °C, ramp −0.2", "value": "Form I"}, {"measurement": "Output Main phase [phase]", "setting": "ethyl acetate 0.5 mL, 100 mg/mL, 75 to 25 °C, ramp −0.2", "value": "Form I"}, {"measurement": "Output Main phase [phase]", "setting": "methyl isobutyl ketone 0.5 mL, 100 mg/mL, 25 to −20 °C, ramp not controlled, 1 d", "value": "Form X"}]}
